Here are results for 16 compounds from PubChem BioAssay AID248 (DTP/NCI, 2004).

“And” between values parts separate entries of the source, which are not always exact repeats. Identical values can stand only once. Inconclusive results and toxic doses are left out.

In this assay the test system is L1210 leukemia ip in BDF1 mice, survival T/C. In words: NCI In Vivo Anticancer Drug Screen. Data for tumor model L1210 Leukemia (intraperitoneal) in B6D2F1 (BDF1) mice. The conditions noted are these: endpoint: mean survival time, higher = longer survival. The gist of the method: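 Each compound was tested against a transplantable tumor grown in mice. The endpoint was survival, with treated animals benchmarked against vehicle controls as a simple ratio.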

The mark [1] stands for this setting: dose: 100.0 mg/kg/injection, schedule: Q04DX003 (ip), vehicle: saline with Tween-80.
The mark [2] stands for this setting: dose: 200.0 mg/kg/injection, schedule: Q04DX003 (ip), vehicle: saline with Tween-80.
Setting [3] is: dose: 400.0 mg/kg/injection, schedule: Q04DX003 (ip), vehicle: saline with Tween-80.
[4] abbreviates: dose: 100.0 mg/kg/injection, schedule: Q01DX001 (ip), vehicle: carboxymethylcellulose (CMC).
Setting [5] is: dose: 100.0 mg/kg/injection, schedule: Q04DX002 (ip), vehicle: Klucel (hydroxypropylcellulose) (HPC).
Where [6] appears, read: dose: 100.0 mg/kg/injection, schedule: Q04DX003 (ip), vehicle: carboxymethylcellulose (CMC).
[7] abbreviates: dose: 200.0 mg/kg/injection, schedule: Q01DX001 (ip), vehicle: carboxymethylcellulose (CMC).
The mark [8] stands for this setting: dose: 200.0 mg/kg/injection, schedule: Q04DX002 (ip), vehicle: Klucel (hydroxypropylcellulose) (HPC).
[9] abbreviates: dose: 200.0 mg/kg/injection, schedule: Q04DX003 (ip), vehicle: carboxymethylcellulose (CMC).
[10] abbreviates: dose: 400.0 mg/kg/injection, schedule: Q01DX001 (ip), vehicle: carboxymethylcellulose (CMC).
The mark [11] stands for this setting: dose: 400.0 mg/kg/injection, schedule: Q04DX002 (ip), vehicle: Klucel (hydroxypropylcellulose) (HPC).
Where [12] appears, read: dose: 400.0 mg/kg/injection, schedule: Q04DX003 (ip), vehicle: carboxymethylcellulose (CMC).
The mark [13] stands for this setting: dose: 100.0 mg/kg/injection, schedule: Q01DX001 (ip), vehicle: saline with Tween-80.
[14] abbreviates: dose: 200.0 mg/kg/injection, schedule: Q01DX001 (ip), vehicle: saline with Tween-80.
Setting [15] is: dose: 100.0 mg/kg/injection, schedule: Q04DX003 (ip), vehicle: saline.
The mark [16] stands for this setting: dose: 100.0 mg/kg/injection, schedule: Q01DX009 (ip), vehicle: saline.
[17] abbreviates: dose: 200.0 mg/kg/injection, schedule: Q01DX009 (ip), vehicle: saline.
[18] abbreviates: dose: 400.0 mg/kg/injection, schedule: Q04DX003 (ip), vehicle: saline.
The mark [19] stands for this setting: dose: 100.0 mg/kg/injection, schedule: Q01DX009 (ip), vehicle: saline with Tween-80.
Where [20] appears, read: dose: 200.0 mg/kg/injection, schedule: Q01DX009 (ip), vehicle: saline with Tween-80.

In the case of `COC(=O)c1[nH]cnc1/N=N\N(CCF)CCF`, the T/C was 120 % of control (dose: 1.5 mg/kg/injection, schedule: Q01DX009 (ip), vehicle: carboxymethylcellulose (CMC)); 110 % of control (dose: 3.0 mg/kg/injection, schedule: Q01DX009 (ip), vehicle: carboxymethylcellulose (CMC)); 102 % of control (dose: 4.5 mg/kg/injection, schedule: Q01DX001 (ip), vehicle: carboxymethylcellulose (CMC)); 101 % of control (dose: 5.0 mg/kg/injection, schedule: Q01DX001 (ip), vehicle: carboxymethylcellulose (CMC)); 112 % of control (dose: 9.0 mg/kg/injection, schedule: Q01DX001 (ip), vehicle: carboxymethylcellulose (CMC)); 115 % of control (dose: 10.0 mg/kg/injection, schedule: Q01DX001 (ip), vehicle: carboxymethylcellulose (CMC)). In addition, the T/C is, setting by setting: (dose: 12.0 mg/kg/injection, schedule: Q01DX009 (ip), vehicle: carboxymethylcellulose (CMC)) 91 % of control; (dose: 14.4 mg/kg/injection, schedule: Q01DX009 (ip), vehicle: carboxymethylcellulose (CMC)) 169 % of control; (dose: 18.0 mg/kg/injection, schedule: Q01DX009 (ip), vehicle: carboxymethylcellulose (CMC)) 95 % of control; (dose: 40.0 mg/kg/injection, schedule: Q01DX009 (ip), vehicle: carboxymethylcellulose (CMC)) 97 % of control; (dose: 53.0 mg/kg/injection, schedule: Q01DX001 (ip), vehicle: carboxymethylcellulose (CMC)) 154 % of control; (dose: 80.0 mg/kg/injection, schedule: Q01DX001 (ip), vehicle: carboxymethylcellulose (CMC)) 171 % of control.

With `N#CCC(=O)Cc1ccccc1[N+](=O)[O-]`, the T/C reads like this: under setting [1], 95 % of control; under setting [2], 100 % of control; under setting [3], 94 % of control.

On to `O=C(O)c1ccc(Br)cc1F`, for which the T/C is, setting by setting: under setting [4], 89 % of control; (dose: 100.0 mg/kg/injection, schedule: Q01DX009 (ip), vehicle: carboxymethylcellulose (CMC)) 109 % of control and 92 % of control; under setting [5], 97 % of control; (dose: 100.0 mg/kg/injection, schedule: Q04DX002 (ip), vehicle: carboxymethylcellulose (CMC)) 104 % of control and 107 % of control; under setting [6], 97 % of control; under setting [7], 99 % of control. Moreover, the T/C (dose: 200.0 mg/kg/injection, schedule: Q01DX009 (ip), vehicle: carboxymethylcellulose (CMC)) is 116 % of control and 89 % of control; the T/C under setting [8] is 97 % of control; the T/C (dose: 200.0 mg/kg/injection, schedule: Q04DX002 (ip), vehicle: carboxymethylcellulose (CMC)) was 102 % of control and 91 % of control; the T/C under setting [9] is 99 % of control; the T/C under setting [10] was 89 % of control; the T/C (dose: 400.0 mg/kg/injection, schedule: Q01DX009 (ip), vehicle: carboxymethylcellulose (CMC)) was 95 % of control and 92 % of control. The T/C runs as follows: under setting [11], 97 % of control; (dose: 400.0 mg/kg/injection, schedule: Q04DX002 (ip), vehicle: carboxymethylcellulose (CMC)) 99 % of control and 100 % of control; under setting [12], 105 % of control.

As for `CCOC(=O)c1ccc(NCc2nnc3nc(N)[nH]c(=O)c3n2)cc1`, the T/C reads like this: (dose: 50.0 mg/kg/injection, schedule: Q01DX001 (ip), vehicle: saline with Tween-80) 102 % of control; under setting [13], 96 % of control; under setting [14], 98 % of control.

`O=C(O)CC1CCCNC1` (stereo unspecified): the T/C is 100 % of control (dose: 75.0 mg/kg/injection, schedule: Q04DX003 (ip), vehicle: saline); 103 % of control (dose: 150.0 mg/kg/injection, schedule: Q04DX003 (ip), vehicle: saline); 101 % of control (dose: 300.0 mg/kg/injection, schedule: Q04DX003 (ip), vehicle: saline).

For the compound `COc1ccc(CCNC2C3CC4CC(C3)CC2C4)cc1OC` (stereo unspecified), the T/C under setting [15] is 94 % of control.

With `COc1ccc(OC)c2[nH]c(-c3ccc(Cl)cc3)cc12`, the T/C runs as follows: under setting [5], 99 % of control; under setting [8], 102 % of control; under setting [11], 89 % of control.

For the compound `O=C(O)C(O)COc1ccc(Cl)cc1Cl` (stereo unspecified), the T/C by setting is: under setting [16], 92 % of control; under setting [15], 93 % of control; under setting [17], 107 % of control; (dose: 400.0 mg/kg/injection, schedule: Q01DX009 (ip), vehicle: saline) 102 % of control; under setting [18], 102 % of control.

Turning to `COc1cc2c(cc1OC)CN1CCc3cc(OC)c(OC)cc3C1C2` (stereo unspecified), the T/C by setting is: (dose: 50.0 mg/kg/injection, schedule: Q01DX009 (ip), vehicle: saline with Tween-80) 93 % of control; (dose: 75.0 mg/kg/injection, schedule: Q01DX001 (ip), vehicle: saline) 100 % of control; under setting [19], 93 % of control; (dose: 150.0 mg/kg/injection, schedule: Q01DX001 (ip), vehicle: saline) 100 % of control; under setting [20], 93 % of control; (dose: 300.0 mg/kg/injection, schedule: Q01DX001 (ip), vehicle: saline) 101 % of control.

Consider `COc1ccc(C(C#N)CC(=O)c2ccc(OC)c(OCc3ccccc3)c2)cc1OC` (stereo unspecified), for which the T/C was 96 % of control (dose: 25.0 mg/kg/injection, schedule: Q01DX009 (ip), vehicle: saline); 102 % of control (dose: 50.0 mg/kg/injection, schedule: Q01DX009 (ip), vehicle: saline); 101 % of control under setting [16]; 101 % of control under setting [17].

Regarding `COc1cccc(NC(=S)Nc2ccc(O)cc2)c1`, the T/C under setting [5] was 99 % of control, the T/C under setting [8] is 101 % of control and the T/C under setting [11] was 104 % of control.

Consider `[O-]c1c[n+](-c2ccc3ccccc3c2)no1`, for which the T/C reads like this: under setting [6], 114 % of control; under setting [9], 110 % of control; under setting [12], 104 % of control.

`CCCCC(=O)N/N=C\c1c(O)cc(OC)cc1OC`: the T/C is 87 % of control under setting [4], 87 % of control under setting [7] and 93 % of control under setting [10].

For `Cc1ccc([Si](C)Cl)cc1`, the T/C was 98 % of control under setting [1], 94 % of control under setting [2] and 90 % of control under setting [3].

For the compound `CC(=O)CC(C)(C)c1ccccc1`, the T/C (dose: 100.0 mg/kg/injection, schedule: Q01DX001 (ip), vehicle: Klucel (hydroxypropylcellulose) (HPC)) was 100 % of control; the T/C under setting [16] was 103 % of control; the T/C under setting [15] was 103 % of control; the T/C (dose: 200.0 mg/kg/injection, schedule: Q01DX001 (ip), vehicle: Klucel (hydroxypropylcellulose) (HPC)) is 95 % of control; the T/C under setting [17] was 101 % of control; the T/C (dose: 200.0 mg/kg/injection, schedule: Q04DX003 (ip), vehicle: saline) was 100 % of control. The T/C (dose: 400.0 mg/kg/injection, schedule: Q01DX001 (ip), vehicle: Klucel (hydroxypropylcellulose) (HPC)) was 94 % of control and the T/C under setting [18] is 111 % of control.

For `COc1ccc(S(=O)(=O)F)cc1C(=O)O`, the T/C under setting [13] was 100 % of control; the T/C under setting [19] is 100 % of control; the T/C (dose: 100.0 mg/kg/injection, schedule: Q04DX002 (ip), vehicle: saline with Tween-80) was 90 % of control; the T/C under setting [1] was 94 % of control; the T/C under setting [14] is 92 % of control; the T/C under setting [20] was 100 % of control. In addition, the T/C runs as follows: (dose: 200.0 mg/kg/injection, schedule: Q04DX002 (ip), vehicle: saline with Tween-80) 113 % of control; under setting [2], 97 % of control; (dose: 400.0 mg/kg/injection, schedule: Q01DX001 (ip), vehicle: saline with Tween-80) 94 % of control; (dose: 400.0 mg/kg/injection, schedule: Q04DX002 (ip), vehicle: saline with Tween-80) 86 % of control; under setting [3], 88 % of control.
